Values of other authors in US20130136704A1, “P-MENTHANE-3,8-DIOL ISOMER MIXTURE, COMPOSITION COMPRISING THE SAME, AND PRODUCTS COMPRISING THE MIXTURE OR COMPOSITION” (TAKASAGO INTERNATIONAL CORPORATION, priority 2011, published 2013).

Details: Patent Literature 2

concentration of p-menthane-3,8-diol in solution at which it is in a supersaturation state and crystals precipitate: ≥ 60%
Compound: CC1CCC(C(C)(C)O)C(O)C1 (stereo not shown) [p-menthane-3,8-diol]
